Measured values from publication PMC8858684 (FEBS letters, 2021).

Molecular target: CTX-M-14 β-lactamase (Escherichia coli, UniProt Q9L5C7)
Assay: hydrolysis kinetics
Type: biochemical
Details: read-out: Cefotaxime / Km; purified enzyme

Compound `CO/N=C(\C(=O)N[C@@H]1C(=O)N2C(C(=O)O)=C(COC(C)=O)CS[C@H]12)c1csc(N)n1` [cefotaxime] has a Km of 83.8 ± 2.3 µM.
